From patent US20030157146A1, “Stimulation of the immune system with polydextrose” (priority 2002, published 2003)

Key:
human fecal samples = test: 24 h batch fermentation with human fecal samples: production of SCFA; format: cell-based; settings: 1% of each substance, 37° C., pH 6.9, anaerobic
Method: The test was based on a 24 h fermentation experiment performed with human fecal samples. Fecal samples were incubated in 24-hour batch cultures at 37° C. at pH 6.9 under anaerobic conditions containing a buffer medium (mineral salt, trace elements, vitamines). The medium was supplemented with 10% extract of caecal digesta from pig. Polydextrose, polyols and their combinations were added at the level of 1% each into the test cultures.

[1] = laxative effect in the test animals; set-up: species or system Wistar rats; settings: in vivo
Method: (§1) Four week old male Wistar rats, divided into a control group and three test groups, consisting of 12 rats in each group, were held at a controlled temperature (27±2° C.) and 12:12 hrs light cycle. The animals had free access to food and water. The animals were weighed once a week and their weight gain was calculated. The control group was fed four weeks with a control (basal) diet and the test group was fed four weeks with the PDX-Polyol-diet, which consisted the control (basal) diet supplemented by an immunostimulating amount of polydextrose, and polyol as described in more detail below.
(§2) The in vivo test of Example 2 and the in vitro fermentation of Example 3 were repeated and the level of tyramine was measured.

biogenic amines = biogenic amines from caecal digesta of rats (HPLC, dansyl derivatives); format: in vivo, Wistar rats; settings: rat caecal digesta, Example 3
Method: as §1, with “(27+2°” for “(27±2°”
The control diet was the same diet as defined in Example 1. and the PDX-Polyol-diet was the same as defined in Example 2.
The digesta samples from caecum and colon were divided into pools (3 animals per pool) for the analysis of biogenic amines. The samples were stored in −20° C. until analysed. PH was measured from the caecum in situ.
Biogenic amines were determined from caecal digesta samples. […] The derivatives were separated on a C18 reversed phase column using mixture of ammonium acetate and acetonitrile as eluent, and detected with fluorescence detector.
as §2

laxative effect [1]	Compound	2-metbutyric acid, production of SCFA (%) after 24 h fermentation (human fecal samples)	Acetic acid, production of SCFA (%) after 24 h fermentation (human fecal samples)	Isobutyric acid, production of SCFA (%) after 24 h fermentation (human fecal samples)	Isovaleric acid, production of SCFA (%) after 24 h fermentation (human fecal samples)	Propionic acid, production of SCFA (%) after 24 h fermentation (human fecal samples)	Total SCFA after 24 h fermentation (human fecal samples)	Valeric acid, production of SCFA (%) after 24 h fermentation (human fecal samples)	Butyric acid, production of SCFA (%) after 24 h fermentation (human fecal samples)	amount of tyramine compared to a control diet (biogenic amines)
–	isomalt	0.2%	64.0%	0.4%	0.2%	12.8%	158.6 mmol/L	1.2%	–	–
–	OC[C@@H](O)[C@@H](O)[C@H](O)[C@@H](O)CO [Sorbitol, sorbitol]	0.2%	55.2%	0.5%	0.3%	11.4%	122.4 mmol/L	1.4%	38.6%	–
laxative effect	OC[C@@H](O)[C@@H](O[C@@H]1O[C@H](CO)[C@H](O)[C@H](O)[C@H]1O)[C@H](O)[C@@H](O)CO [Lactitol, lactitol]	0.2%	66.2%	0.4%	0.2%	9.3%	153.6 mmol/L	0.9%	31.1%	reduced
–	OC[C@@H](O)[C@@H](O[C@H]1O[C@H](CO)[C@@H](O)[C@H](O)[C@H]1O)[C@H](O)[C@@H](O)CO [Maltitol, maltitol]	0.2%	57.9%	0.4%	0.2%	12.1%	157.0 mmol/L	1.2%	21.3%	–
–	OC[C@@H](O)[C@H](O)[C@@H](O)CO [Xylitol, xylitol]	0.3%	45.8%	0.6%	0.3%	12.6%	191.6 mmol/L	1.9%	27.9%	–
